Assay results as given in the METLIN SMRT retention time set (Domingo-Almenara et al. 2019).

Assay: gradient 5% acetonitrile 3 min, to 50% in 2 min, to 85% in 15 min, held 3 min, 100 µL/min
Details: column: Zorbax Extend-C18 2.1 x 50 mm; eluents: water / acetonitrile, 0.1% formic acid
In short: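 The mobile phases were water and acetonitrile, each with 0.1% formic acid, pumped at 100 μL/min through a Zorbax Extend-C18 column (2.1 × 50 mm, 1.8 μm). Pure standards were injected as mixtures of ~100 molecules and detected by a quadrupole time-of-flight mass spectrometer in positive and negative ionization mode. Retention time came from computationally picked adduct peaks, each inspected by hand.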

Row | RP-LC retention time [s] | Structure (SMILES)
1 | 806 | CCOc1ccccc1C(=O)Nc1ccc2c(c1)Sc1ncccc1C(=O)N2C
2 | 741 | CCN1C(=O)C2CC3(CCN(C(=O)CC4CCCC4)CC3)CN2C1=O (stereo not drawn)
3 | 853 | COc1cccc(N2C=C(C(=O)N3CCCC3)S(=O)(=O)c3ccc(Cl)cc32)c1
4 | 889 | COc1ccc(C2CC(=O)N(c3ccc(C)cc3C)C(=O)C2)cc1OC
5 | 802 | Cc1ccccc1Nc1c(-c2ccc(Cl)cc2)nc2c(C)cccn12
6 | 1020 | Cc1ccc(Cn2cc(-c3noc(-c4ccc5c(c4)OCO5)n3)nn2)cc1
7 | 838 | O=C(NCc1cccc(Cl)c1)C1c2ccccc2CCN1C(=O)C1CC1 (stereo not drawn)
8 | 1250 | Cc1ccc(-c2nc(C3CC(=O)N(c4ccc(F)c(Cl)c4)C3)no2)c(C)c1 (stereo not drawn)
9 | 919 | CN1C(=O)COc2cc(-c3noc(C(=O)N4CCCCCC4)n3)ccc21
10 | 904 | CSc1ccc(CNC(=O)CN2CCc3[nH]c4c(C)cc(C)cc4c(=O)c3C2)cc1
11 | 1150 | CCOc1ccc(S(=O)(=O)N2CCC(c3noc(-c4cccc(OC)c4)n3)CC2)cc1
12 | 697 | CC1=C(c2ccccc2)S(=O)(=O)N=C1N1CCCN(C(=O)c2ccccc2)CC1
13 | 781 | CCOC(=O)c1c(C)[nH]c(C(=O)N2CCCC(C(=O)NCCc3ccco3)C2)c1C (stereo not drawn)
14 | 853 | CCOCCCNC(=O)c1ccc(OCc2nnc(C(=O)Nc3ccccc3F)s2)cc1
15 | 719 | O=c1ccc(-c2nc(-c3ccncc3)no2)cn1Cc1noc(C2CCCC2)n1
16 | 652 | O=C(NCCCn1c(-c2ccncc2)nc2cccnc21)Nc1ccc(F)cc1F
17 | 700 | CCN(CC)CCNC(=O)c1c(C)[nH]c(/C=C2\C(=O)Nc3ccc(F)cc32)c1C
18 | 563 | COc1ccc(NC(=O)N2CCC(n3c(C)nc4cccnc43)CC2)cc1OC
19 | 958 | CC1CCN(S(=O)(=O)c2ccc3c(c2)CCCC(=O)N3CC(=O)Nc2ccccc2)CC1
20 | 723 | Nc1cc(C2CCN(C(=O)Cc3c(F)cccc3Cl)CC2)no1
21 | 931 | O=C(CSc1cc(N2CCN(c3ccccc3F)CC2)ncn1)NCc1cccs1
22 | 723 | O=C(NCCC1=CCCCC1)C1CCCN(C(=O)c2cc(-c3ccccn3)n[nH]2)C1 (stereo not drawn)

Row | RP-LC retention time [s] | Structure (SMILES)
23 | 644 | CCc1ccc(NC(=O)c2cn3c(n2)CCCC3)cc1
24 | 975 | Cn1cc(-c2nc(C(=O)NCc3ccc(F)c(Cl)c3)cs2)c2cccnc21
25 | 592 | CC(=O)N1c2ccc(S(=O)(=O)N3CCCC3)cc2CC1C(=O)NCCN1CCCCC1 (stereo not drawn)
26 | 905 | CCn1cc2c(n1)c(=O)n(Cc1ccc(F)cc1)c(=O)n2CC(=O)Nc1cc(F)ccc1F
27 | 846 | Cc1cccc(N2CCN(CC(O)COc3ccc(Cl)cc3)CC2)c1 (stereo not drawn)
28 | 1070 | CCOC(=O)c1cc(C)nc2c1c(=O)n(Cc1ccc(F)cc1)c(=O)n2C
29 | 625 | O=C(NCC(c1ccco1)N1CCN(c2ccccc2)CC1)Oc1ccccc1 (stereo not drawn)
30 | 694 | CCN(CC)CCNC(=O)COc1ccc(Cl)cc1
31 | 1180 | CCOc1cccc(-c2noc(CN3C(=O)COc4cc(Cl)ccc43)n2)c1
32 | 652 | CC(=O)N1CCc2nn(CC(=O)N3CCN(c4ccccc4F)CC3)c(=O)cc2C1
33 | 720 | CCOc1ccc(-c2cc3c(=O)n(Cc4nc(-c5ccccc5)no4)ncn3n2)cc1
34 | 707 | COc1ccc(C2(C(=O)NCC3Cn4cccc4C(=O)N3C)CC2)cc1 (stereo not drawn)
35 | 848 | O=C(Cn1ccn2nc(-c3ccccc3)c(CO)c2c1=O)N1CCc2ccccc21
36 | 667 | Cc1ccc2oc(-c3nnc(C(=O)NCCN4CCOCC4)o3)c(C)c2c1
37 | 985 | COc1ccc(S(=O)(=O)N2CCCC(C(=O)Nc3ccccc3F)C2)cc1Cl (stereo not drawn)
38 | 756 | CCc1cc(=O)n(CC(=O)Nc2ccc(F)c(F)c2)c(N2CCOCC2)n1
39 | 1050 | O=C1CC(c2noc(-c3ccccc3F)n2)CN1c1ccc(F)c(Cl)c1 (stereo not drawn)
40 | 1030 | CCCCN1C(=O)C(C)(C(=O)NCc2cccc(C)c2)Oc2cccnc21 (stereo not drawn)
41 | 1050 | CC(C)c1csc(-c2csc(S(=O)(=O)NCc3ccc4c(c3)OCO4)c2)n1
42 | 978 | Fc1ccc(C(c2nnc(-c3ccccc3)o2)N2CCN(c3ccccn3)CC2)c(Cl)c1 (stereo not drawn)
43 | 788 | Cc1ccc(C(=O)Nc2cccc(C(F)(F)F)c2)cc1Nc1nc(-c2cccnc2)nc2c1cnn2C
44 | 833 | O=C(c1cn2cc(Cl)ccc2n1)N1CCN(c2ccccc2F)CC1

Row | RP-LC retention time [s] | Structure (SMILES)
45 | 949 | COc1cc(NC(=O)C2CCCN(S(=O)(=O)c3cc(-c4noc(C)n4)cs3)C2)cc(OC)c1 (stereo not drawn)
46 | 567 | COc1ccc(N2CCN(C(=O)C3CCN(CCc4c[nH]c5ncccc45)CC3)CC2)cc1
47 | 636 | Cc1cc(N2CCN(C(=O)c3ccc(Br)o3)CC2)nc(N2CCCC2)n1
48 | 791 | Cn1nccc1C(=O)Nc1ccc(Br)cc1
49 | 1070 | Cc1cccc(-n2c(=O)c3sccc3n(Cc3nc(-c4ccccc4C)no3)c2=O)c1
50 | 556 | CC(C)NC(=O)Cc1cn2cc(Br)ccc2n1
51 | 852 | Cc1cc(Cl)ccc1NC(=O)C1CCCN(S(=O)(=O)c2c[nH]c(C(=O)N3CCCC3)c2)C1 (stereo not drawn)
52 | 602 | CCN(CC)CCNC(=O)CCc1c(C)nc2c(c1C)c(=O)n(C)c(=O)n2C
53 | 1130 | O=C(Nc1ccccc1Br)N1CCc2nc(-c3ccc(Cl)cc3)ncc2C1
54 | 1140 | COc1cccc(-c2nc(-c3ccc4c(c3)oc(=O)n4C(C)C)no2)c1OC
55 | 966 | COc1ccc(-c2ncc3c(n2)CCN(C(=O)c2c(F)cccc2Cl)C3)cc1
56 | 800 | Cc1cc(C)n(CC(C)C(=O)Nc2ccc(Br)cc2)n1 (stereo not drawn)
57 | 868 | Cc1ccc(-c2cc(C(F)(F)F)on2)cc1S(=O)(=O)N1CCN(c2ccccn2)CC1
58 | 1280 | CCC(C(=O)N1CCC(C)CC1)n1cnc2onc(-c3ccc(Cl)cc3)c2c1=O (stereo not drawn)
59 | 746 | Cc1ccc2nc(-c3cccc(Cl)c3)c(Nc3ccc4c(c3)OCO4)n2c1
60 | 739 | COc1cccc(CNC(=O)N2CCC3(CC2)NC(=O)c2ccccc2O3)c1
61 | 647 | CCCC(=O)Nc1ccc2nc(N3CCN(c4cccc(OC)c4)CC3)cc(C(=O)O)c2c1
62 | 712 | COc1ccc(C(=O)N2CCc3ccc(CNC(=O)NCC4CCCO4)cc32)cc1 (stereo not drawn)
63 | 700 | Cc1csc(NC(=O)c2cc(Sc3nncn3C)ccc2N)n1
64 | 974 | O=C1c2cc(NC(=O)C3(c4cccs4)CCCC3)ccc2OCCC2CCCCN12 (stereo not drawn)
65 | 788 | CCCn1cc(CCNC(=O)c2ccc(F)cc2Cl)c2cccnc21
66 | 910 | COC(=O)c1cccc(C(=O)Nc2ccc(C)c(C)c2)n1

Row | RP-LC retention time [s] | Structure (SMILES)
67 | 648 | Cc1cccc2nnc(N3CCN(C(=O)c4ccc(F)cc4)CC3)n12
68 | 647 | COc1cc(-c2nc3ncccn3c2Nc2cccc(C)c2)ccc1O
69 | 1030 | CCN1C(=O)c2cc(S(=O)(=O)Nc3ccc(C)cc3F)ccc2Oc2cccnc21
70 | 839 | O=C1CCCN1c1ccc(Cn2nc3c(-c4nc(-c5ccccc5)no4)cccn3c2=O)cc1
71 | 853 | CC(C)(C)c1ccc(C(=O)Nc2ccc3c(c2)C(=O)NC3=O)cc1
72 | 782 | O=C(Cn1c(=O)c(CCC(=O)NC2CCCC2)nc2ccccc21)NCc1ccccc1
73 | 834 | CCOc1ccccc1NC(=O)N1CCC2(CC1)NC(=O)c1ccc(Cl)cc1N2
74 | 743 | COc1ccc(-c2cc3n(n2)CCCN(C(=O)NCc2ccco2)C3)cc1
75 | 800 | Cc1cc(NC(=O)C2CCN(C(=O)C3(c4cccs4)CCCC3)CC2)no1
76 | 596 | CNC(=O)c1cc(C)nc2ccc(C(C)C)cc12
77 | 1140 | Cc1sc(-c2cc(C(F)(F)F)on2)cc1S(=O)(=O)NCc1ccccc1Cl
78 | 599 | CCCOc1nccnc1N1CCC(N(C)C(=O)Cc2cccnc2)C1 (stereo not drawn)
79 | 834 | Cc1ccc(NC(=O)C2CCCN(S(=O)(=O)c3cn(C(C)C)cn3)C2)c(Cl)c1 (stereo not drawn)
80 | 656 | Cc1ccc(CCN2CC(C(=O)N3CCN(c4cc(=O)n(C)c(=O)n4C)CC3)CC2=O)cc1 (stereo not drawn)
81 | 671 | CC(C)NC(=O)c1nc(-c2ccnc(N3CCOCC3)c2)no1
82 | 590 | O=C(Nc1ccc2c(c1)OCCO2)N1CCCC(CN2CCOCC2)CC1 (stereo not drawn)
83 | 537 | O[C@@H]1C[C@@H](c2nnc3n2CCN(Cc2ccccn2)C3)N(Cc2ccccc2)C1
84 | 565 | CCCn1c(C)cnc1C1CN(S(=O)(=O)c2ccccc2)C1
85 | 716 | Cc1oc(C2CCN(C(=O)Cc3ccccc3Cl)CC2)nc1C(=O)N1CCOCC1
86 | 741 | CCOCCOC1CCN(C(=O)c2sccc2C)CC1
87 | 798 | Cc1[nH]c2ccccc2c1C(=O)C(=O)NC1CCCCC1

Row | Structure (SMILES) | RP-LC retention time [s]
88 | CCC(=O)Nc1ccc(-n2cnc(C(=O)N3CCC4(CC3)OCCO4)c2)nc1 | 616
